According to US7696165B2 (Albany Molecular Research, Inc., priority 2006, dated 2010):
Values after ≈ are worked out from the molar mass of the structure shown.

System: concanavalin A (ConA)-stimulated murine splenocytes
Assay: Concanavalin A-stimulated murine splenocyte assay ([3H]thymidine incorporation)
Type: cell-based, mouse (BALB/c)
Protocol: Male BALB/c mice, at 5 to 7 weeks of age, were sacrificed by CO2 inhalation. Spleens were removed and dissociated by pushing through a nylon cell strainer. The splenocytes were washed in RPMI 1640/5% fetal calf serum (FCS) and pelleted at 400×g. Red blood cells were then lysed by resuspending the cell pellet in ACK lysis buffer (150 mM NH4Cl, 1 mM KHCO3, 0.1 mM EDTA, 3 mL per spleen) for 10 min at room temperature. After pelleting at 400×g, the cells were washed by resuspending in RPMI 1640/5% FCS and repelleting. The cell pellet was resuspended in RPMI 1640/5% FCS and again passed through a cell strainer to remove cell aggregates. The cells were then counted and adjusted to 2×10^6 cells/ml in RPMI 1640/10% FCS/50 μM 2-mercaptoethanol. Cell viability was assessed by Trypan blue staining. […] The cells were cultured in a 37° C. CO2 incubator for 2 days and then pulsed with 1 μCi of [^3H]thymidine for 6 hours. Cells were harvested onto filtermats with a TomTec 96 well plate harvester and lysed with H2O. The filtermat and scintillation fluid were sealed in a plastic sleeve. [^3H]thymidine incorporation was measured with a Wallac Trilux plate counter. Initial screens were done at a fixed value of 100 ng/ml test compound. IC50s were calculated from 7 point concentration-response curves using graphPad software.

Structure (SMILES) | IC50 | immunosuppressive potency compared to cyclosporin A (FIG. 1, ConA stimulated murine splenocyte assay)
C/C=C\C#CC#CC[C@@H](C)[C@@H](O)[C@H]1C(=O)N[C@@H](CC)C(=O)N(C)CC(=O)N(C)[C@@H](CC(C)C)C(=O)N[C@@H](C(C)C)C(=O)N(C)[C@@H](CC(C)C)C(=O)N[C@@H](C)C(=O)N[C@H](C)C(=O)N(C)[C@@H](CC(C)C)C(=O)N(C)[C@@H](CC(C)C)C(=O)N(C)[C@@H](C(C)C)C(=O)N1C [Example 35, cis-cyclosporin yne-yne-ene] | 0.077 µg/mL (≈ 0.0616 µM) | 
C#CC#CC[C@@H](C)[C@@H](O)[C@H]1C(=O)N[C@@H](CC)C(=O)N(C)CC(=O)N(C)[C@@H](CC(C)C)C(=O)N[C@@H](C(C)C)C(=O)N(C)[C@@H](CC(C)C)C(=O)N[C@@H](C)C(=O)N[C@H](C)C(=O)N(C)[C@@H](CC(C)C)C(=O)N(C)[C@@H](CC(C)C)C(=O)N(C)[C@@H](C(C)C)C(=O)N1C [Example 25, cyclosporine diyne] | 0.012 µg/mL (≈ 0.00991 µM) | two times more potent over cyclosporin A
C/C=C\C#CC[C@@H](C)[C@@H](O)[C@H]1C(=O)N[C@@H](CC)C(=O)N(C)CC(=O)N(C)[C@@H](CC(C)C)C(=O)N[C@@H](C(C)C)C(=O)N(C)[C@@H](CC(C)C)C(=O)N[C@@H](C)C(=O)N[C@H](C)C(=O)N(C)[C@@H](CC(C)C)C(=O)N(C)[C@@H](CC(C)C)C(=O)N(C)[C@@H](C(C)C)C(=O)N1C [Example 14, cis-cyclosporin yne-ene] | 0.032 µg/mL (≈ 0.0261 µM) | 
CC#CC#CC[C@@H](C)[C@@H](O)[C@H]1C(=O)N[C@@H](CC)C(=O)N(C)CC(=O)N(C)[C@@H](CC(C)C)C(=O)N[C@@H](C(C)C)C(=O)N(C)[C@@H](CC(C)C)C(=O)N[C@@H](C)C(=O)N[C@H](C)C(=O)N(C)[C@@H](CC(C)C)C(=O)N(C)[C@@H](CC(C)C)C(=O)N(C)[C@@H](C(C)C)C(=O)N1C [Example 27, cyclosporin diyne] | 0.012 µg/mL (≈ 0.0098 µM) | 
